Measured values from patent publication US20030003086A1, “Modulation of MHC class I antigen presentation” (priority 2001, published 2003).

What was measured:
pure PSA = pure PSA (Homo sapiens, UniProt P55786); experiment: Degradation of FAPGNYPAL by pure PSA; type: biochemical; conditions: PSA at concentrations similar to those found in HeLa cells
living cells = conditions: cited from earlier work
TOP [1] = experiment: Generation of SIINFEKL+Kb complexes in Kb-Cos7 cells loaded with ovalbumin and TOP inhibitor by hypertonic lysis of pinosomes (25D1 staining, flow cytometry); type: cell-based; conditions: Kb-Cos7 cells not overexpressing TOP; ovalbumin 40 mg/ml, inhibitor 1 mM, two hours; FIG. 3C
Excerpt: (§1) To test whether TOP can influence antigen presentation, the effects of transiently overexpressing TOP in vivo on the presentation of SIINFEKL (SEQ ID NO:5) peptide produced in the cytoplasm from a synthetic minigene were studied. In one set of experiments, expression vectors encoding TOP and SIINFEKL were transiently co-transfected into Kbexpressing COS7 cells. The presentation of SIINFEKL on MHC class I Kb molecules was detected by staining with a SIlNFEKL+Kb-specific monoclonal antibody (25D1) (Porgador et al., 1997, Immunity. 6:715-726) and quantified by flow cytometry. Briefly, Kb-Cos7 cells were co-transfected with a SIINFEKL minigene in pCDNA3 and a pTracer plasmid encoding green fluorescence protein (GFP), GFP+human TOP or GFP+ORP 150 (a control protein) using FuGENE™ (Roche Applied Science). After 48 hours, the cells were stained with an anti-SIINFEKL+Kb specific nAb (25D1) (Porgador et al., 1997, supra) followed by pbycoerythrin-conjugated anti-immunoglobulin antibody and fluorescence was measured by flow fluorocytometry. […]
(§2) The data of FIG. 3C were generated in experiments in which ovalbumin (40 mg/ml) admixed with either the TOP inhibitor cPP-AAF-pAB (1 mM) or vehicle (DMSO) was introduced into pTracer-transfected Kb-Cos7 cells. After two hours the presence of SIINFEKL+Kb complexes was determined by immunofluorescence as described for FIG. 1A (supra). […]

TOP [2] = molecular target: T1, TOP (Homo sapiens, UniProt P52888); experiment: as above; type: cell-based; conditions: cells transfected with TOP
T1 construct: was introduced into pTracer-transfected Kb-Cos7 cells; endogenous in cells; host or cells: Kb-Cos7 cells transfected with pTracer (GFP) only
T1 sequence (P52888 whole entry): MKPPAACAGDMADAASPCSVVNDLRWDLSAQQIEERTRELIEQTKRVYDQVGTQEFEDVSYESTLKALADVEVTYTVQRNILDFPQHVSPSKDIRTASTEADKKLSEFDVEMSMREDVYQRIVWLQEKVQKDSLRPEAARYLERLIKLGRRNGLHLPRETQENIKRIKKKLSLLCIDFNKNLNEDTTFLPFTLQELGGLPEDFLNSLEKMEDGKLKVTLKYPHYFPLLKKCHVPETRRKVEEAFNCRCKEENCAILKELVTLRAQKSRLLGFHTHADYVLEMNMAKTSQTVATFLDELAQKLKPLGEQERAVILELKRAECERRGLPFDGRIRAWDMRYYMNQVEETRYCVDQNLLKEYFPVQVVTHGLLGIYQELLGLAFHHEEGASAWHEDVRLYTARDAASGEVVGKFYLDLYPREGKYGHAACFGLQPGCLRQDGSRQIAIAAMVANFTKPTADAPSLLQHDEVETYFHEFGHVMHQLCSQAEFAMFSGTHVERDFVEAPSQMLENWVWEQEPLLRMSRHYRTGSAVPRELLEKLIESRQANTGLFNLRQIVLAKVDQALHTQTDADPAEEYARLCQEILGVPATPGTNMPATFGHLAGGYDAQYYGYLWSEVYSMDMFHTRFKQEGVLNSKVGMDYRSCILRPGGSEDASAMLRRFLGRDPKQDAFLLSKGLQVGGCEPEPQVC
Excerpt: as §1, §2

Chain of pure PSA (P55786 whole entry): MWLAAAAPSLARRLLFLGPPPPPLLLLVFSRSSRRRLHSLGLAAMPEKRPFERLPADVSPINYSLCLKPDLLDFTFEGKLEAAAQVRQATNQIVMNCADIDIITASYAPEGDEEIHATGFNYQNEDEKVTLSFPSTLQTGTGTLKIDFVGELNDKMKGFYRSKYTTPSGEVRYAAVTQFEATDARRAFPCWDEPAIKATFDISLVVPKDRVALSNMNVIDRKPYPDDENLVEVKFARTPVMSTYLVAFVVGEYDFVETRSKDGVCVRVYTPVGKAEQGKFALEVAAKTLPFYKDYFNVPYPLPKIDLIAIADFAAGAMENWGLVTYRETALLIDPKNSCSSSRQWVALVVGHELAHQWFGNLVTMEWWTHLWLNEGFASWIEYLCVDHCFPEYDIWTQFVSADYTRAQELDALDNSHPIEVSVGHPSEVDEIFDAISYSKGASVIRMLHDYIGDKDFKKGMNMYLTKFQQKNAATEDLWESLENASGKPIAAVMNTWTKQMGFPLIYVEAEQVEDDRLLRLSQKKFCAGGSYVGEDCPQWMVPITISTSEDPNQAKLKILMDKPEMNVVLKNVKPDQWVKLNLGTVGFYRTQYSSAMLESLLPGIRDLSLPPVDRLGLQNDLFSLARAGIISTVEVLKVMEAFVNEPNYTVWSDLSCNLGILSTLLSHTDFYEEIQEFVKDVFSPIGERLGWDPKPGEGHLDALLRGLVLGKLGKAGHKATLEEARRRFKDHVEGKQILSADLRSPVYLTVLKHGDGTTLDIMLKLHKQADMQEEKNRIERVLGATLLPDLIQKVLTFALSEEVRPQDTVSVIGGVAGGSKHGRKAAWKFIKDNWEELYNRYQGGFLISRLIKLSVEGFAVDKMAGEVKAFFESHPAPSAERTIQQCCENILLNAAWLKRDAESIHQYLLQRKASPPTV

| Substance | susceptibility to degradation by pure PSA (pure PSA) | entry into living cells / cell cytosol (living cells) | generation of SIINFEKL-Kb complexes (MHC class I presentation) (TOP [1]) | generation of SIINFEKL-Kb complexes (MHC class I presentation) (TOP [2]) |
| --- | --- | --- | --- | --- |
| FAPGNYPAL [antigenic peptide, Sendai Virus NP, residues 324-332] | particularly susceptible to degradation |  |  |  |
| N-(1(RS)-carboxy-3-phenylpropyl)-Ala-Ala-Tyr-p-aminobenzoate [cPP-AAF-PAB] |  | does not enter living cells | enhanced | enhanced |
